Assay results published in publication PMC8157715 (2020).

How the values were obtained:
[1] = system: Wide-type adenosine Apt (wild-type aptamer) (DNA, aptamer) ACCTGGGGGAGTATTGCGGAGGAAGGT; experiment: SYBR Green I fluorescence; settings: 100 mM NaCl, 5 mM MgCl2, 20 mM HEPES pH 7.6, 2 mM
[2] = system: A10-excised Apt (DNA, aptamer) GTATTGCGGAGGAAGGTTTTTAACCTTCGGGG; experiment: SYBR Green I fluorescence; settings: 100 mM NaCl, 5 mM MgCl2; 20 mM HEPES pH 7.6; SYBR Green I displaced; 2 mM
[3] = system: Res-A10-Right cut (DNA, aptamer) GTATTGCGGAGGAAGGTTTTTAACCTTCGGGGA; experiment: SYBR Green I fluorescence; settings: 100 mM NaCl, 5 mM MgCl2; 20 mM HEPES pH 7.6; SYBR Green I displaced; 2 mM
[4] = system: Duplex-2 (DNA, hairpin) GTATTGCGCCCCGAAGGTTTTTAACCTTCGGGG; experiment: SYBR Green I fluorescence; settings: 100 mM NaCl, 5 mM MgCl2; 20 mM HEPES pH 7.6; 12.5 nM SYBR Green I; 2 mM
[5] = system: One-site Apt (DNA, aptamer) ACCTTCGGGGAGTATTGCGGAGGAAGGT; experiment: ITC; settings: 100 mM NaCl, 5 mM MgCl2; 20 mM HEPES pH 7.6, 10 °C, one-site model
[6] = system: A10-excised Apt (DNA, aptamer) GTATTGCGGAGGAAGGTTTTTAACCTTCGGGG; experiment: ITC; settings: 100 mM NaCl, 5 mM MgCl2, 20 mM HEPES pH 7.6, 10 °C
[7] = system: Res-A10-Right cut (DNA, aptamer) GTATTGCGGAGGAAGGTTTTTAACCTTCGGGGA; experiment: ITC; settings: 100 mM NaCl, 5 mM MgCl2, 20 mM HEPES pH 7.6, 10 °C
[8] = system: Duplex-1 (DNA, hairpin) GGGGGTATTGCCCCCGCAAGGTTTTTAACCTTG; experiment: SYBR Green I fluorescence; settings: 100 mM NaCl, 5 mM MgCl2; 20 mM HEPES pH 7.6; 12.5 nM SYBR Green I; 2 mM
[9] = system: A10-excised Apt (DNA, aptamer) GTATTGCGGAGGAAGGTTTTTAACCTTCGGGG; experiment: SYBR Green I fluorescence titration; settings: 100 mM NaCl, 5 mM MgCl2, 20 mM HEPES pH 7.6
[10] = system: Res-A10-Right cut (DNA, aptamer) GTATTGCGGAGGAAGGTTTTTAACCTTCGGGGA; experiment: SYBR Green I fluorescence titration; settings: 100 mM NaCl, 5 mM MgCl2, 20 mM HEPES pH 7.6
[11] = system: Res-A10-Left cut (DNA, aptamer) AGTATTGCGGAGGAAGGTTTTTAACCTTCGGGG; experiment: SYBR Green I fluorescence titration; settings: 100 mM NaCl, 5 mM MgCl2; 20 mM HEPES pH 7.6; SYBR Green I (50 nM) displaced; apparent
[12] = system: Res-A10-Left cut (DNA, aptamer) AGTATTGCGGAGGAAGGTTTTTAACCTTCGGGG; experiment: SYBR Green I fluorescence; settings: 100 mM NaCl, 5 mM MgCl2; 20 mM HEPES pH 7.6; SYBR Green I displaced; drop two thirds of adenosine's
[13] = SYBR Green I (50 nM) displaced, apparent
[14] = 1 mM AMP in syringe, extremely weak, undetectable heat

Compound	binding ([1]; SYBR Green I displaced)	binding [2]	binding [3]	binding ([1]; 50 nM SYBR Green I displaced)	also measured
Nc1ccn([C@@H]2O[C@H](CO)[C@@H](O)[C@H]2O)c(=O)n1	no	no	no	–	binding [4]: no
Nc1nc2c(ncn2[C@@H]2O[C@H](CO)[C@@H](O)[C@H]2O)c(=O)[nH]1	no	no	–	–	–
Nc1ncnc2c1ncn2[C@@H]1O[C@H](CO)[C@@H](O)[C@H]1O	–	–	–	yes	Kd [5]: 2.8 ± 0.1 µM; Kd ([6]; one-site model): 14.8 ± 2.1 µM; Kd ([7]; one-site model): 21.0 ± 3.8 µM; binding [8]: no; binding [4]: no; Kd [9, 13]: 370 µM; half saturation [10, 13]: 0.94 mM; Kd [11]: 570 µM
O=c1ccn([C@@H]2O[C@H](CO)[C@@H](O)[C@H]2O)c(=O)[nH]1	no	no	no	–	–
Cn1c(=O)c2[nH]cnc2n(C)c1=O	no	no	–	–	–
Nc1ncnc2c1ncn2[C@@H]1O[C@H](COP(=O)(O)O)[C@@H](O)[C@H]1O	–	–	–	yes	Kd [5]: 13.5 ± 1.6 µM; binding [6, 14]: no; binding [7, 14]: no; binding [12]: yes; binding ([9]; SYBR Green I displaced, up to 2 mM): no; binding ([10]; SYBR Green I displaced, no binding in titration): no
Nc1ncnc2c1ncn2[C@@H]1O[C@H](COP(=O)(O)OP(=O)(O)OP(=O)(O)O)[C@@H](O)[C@H]1O	–	no	no	yes	–
